Results published in patent publication US20100069246A1, “Herbicide Combination Comprising Dimethoxytriazinyl-Substituted Difluoromethanesulfonylanilides” (BAYER CROPSCIENCE AG, priority 2008, published 2010).

Experiments:
Assay in all cases: Post-emergence action, greenhouse pot test, visual scoring
Type in all cases: in vivo
[1] = tested on: Abuthilon theophrasti (ABUTH)
Procedure: (§1) Seeds or rhizome pieces of mono- and dicotyledonous harmful and useful plants were placed in peat pots (diameter 4 cm) filled with sandy loam and then covered with soil. The pots were kept in a greenhouse under optimum conditions. In addition, harmful plants encountered in paddy rice cultivation were cultivated in pots with a water level 2 cm above the soil surface.
(§2) About three weeks after the start of the cultivation, the test plants were treated at the 2- to 3-leaf stage. The herbicides, formulated as powder or liquid concentrates, were, either alone or in the combinations according to the invention, sprayed in various dosages on to the green parts of the plants using an application rate of 600 l of water/ha (converted). For further cultivation of the plants, the pots were then again kept under optimum conditions in a greenhouse.
(§3) The visual scoring of the herbicidal effects was carried out in intervals up to 21 days after the treatment. Scoring was carried out in percent in comparison to the untreated control plants. 0%=no herbicidal activity, 100%=complete herbicidal activity=complete kill.
(§4) The percentages from the treatments with the herbicides alone (=individual application) and with the combinations according to the invention (=mixtures) were employed to calculate interactions using the method of Colby. When the observed efficacies of the mixtures exceed the formal sum of the values of the tests with individual applications, they also exceed the expected value according to Colby, which is calculated using the formula below (cf. S. R. Colby; in Weeds 15 (1967) pp. 20 to 22):
(§5) Here: • A, B=activity of components A and B in percent at a dosage of a and b g of ai/ha (=gramm of active substance per hectare), respectively. • E=expected value in % at a dosage of a+b g of ai/ha.

[2] = tested on: Alopecurus myosuroides (ALOMY)
Procedure: as §1, §2, §3, §4, §5

[3] = tested on: Amaranthus retroflexus (AMARE)
Procedure: as §1, §2, §3, §4, §5

[4] = tested on: Echinochloa crus-galli (ECHCG); conditions: 21 DAT
Procedure: as §1, §2, §3, §4, §5

[5] = tested on: Fallopia (ex Polygonum) convolvulus (POLCO)
Procedure: as §1, §2, §3, §4, §5

[6] = tested on: Matricaria inodora (MATIN)
Procedure: as §1, §2, §3, §4, §5

Oryza sativa (ORYSA) = tested on: Oryza sativa (ORYSA)
Procedure: as §1, §2, §3, §4, §5

[7] = tested on: Pharbitis purpurea (PHBPU)
Procedure: as §1, §2, §3, §4, §5

Setaria viridis (SETVI) = tested on: Setaria viridis (SETVI)
Procedure: as §1, §2, §3, §4, §5

[8] = tested on: Triticum aestivum (TRZAS); conditions: 10 DAT
Procedure: as §1, §2, §3, §4, §5

Zea mays (ZEAMX) = tested on: Zea mays (ZEAMX)
Procedure: as §1, §2, §3, §4, §5

Avena fatua (AVEFA) = tested on: Avena fatua (AVEFA)
Procedure: as §1, §2, §3, §4, §5

[9] = tested on: Lolium multiflorum (LOLMU)
Procedure: as §1, §2, §3, §4, §5

Veronica persica (VERPE) = tested on: Veronica persica (VERPE)
Procedure: as §1, §2, §3, §4, §5

Viola tricolor (VIOTR) = tested on: Viola tricolor (VIOTR)
Procedure: as §1, §2, §3, §4, §5

[10] = tested on: Cyperus esculentus (CYPES); conditions: 21 DAT
Procedure: as §1, §2, §3, §4, §5

[11] = 21 DAT, component A 4 g of ai/ha
[12] = 21 DAT, component A 12 g of ai/ha
[13] = 10 DAT, component A 4 g of ai/ha
[14] = 10 DAT, component B 300 g of ai/ha
[15] = 21 DAT, component B 300 g of ai/ha
[16] = 21 DAT, component B 900 g of ai/ha
[17] = 10 DAT, component B 900 g of ai/ha
[18] = 10 DAT, component B 400 g of ai/ha
[19] = 10 DAT, component B 1200 g of ai/ha
[20] = 21 DAT, component B 400 g of ai/ha
[21] = 21 DAT, component B 1200 g of ai/ha

## COc1nc(OC)nc(C(=O)c2cccc(F)c2N(C)S(=O)(=O)C(F)F)n1 [A-1]
[1]; [11]
  % activity found: 85%
[1]; [12]
  % activity found: 85%
[2]; [13]
  % activity found: 40%
[2]; [11]
  % activity found: 40%
[3]; [11]
  % activity found: 70%
[4]; component A 4 g of ai/ha
  % activity found: 85%
[5]; [12]
  % activity found: 70%
[6]; [12]
  % activity found: 60%
Oryza sativa (ORYSA); [12]
  % activity found: 10%
[7]; 10 DAT, component A 12 g of ai/ha
  % activity found: 60%
[7]; [11]
  % activity found: 60%
Setaria viridis (SETVI); [13]
  % activity found: 50%
[8]; component A 4 g of ai/ha
  % activity found: 0%
Zea mays (ZEAMX); [13]
  % activity found: 0%
Zea mays (ZEAMX); [12]
  % activity found: 0%

## CC(C)(NC(=O)NCc1ccccc1Cl)c1ccccc1 [B1-1, N-[(2-chlorophenyl)methyl]-N′-(1-methyl-1-phenylethyl)urea]
[1]; [14]
  % activity found: 0%
[1]; [15]
  % activity found: 0%
[1]; [16]
  % activity found: 0%
[2]; [14]
  % activity found: 0%
[2]; [17]
  % activity found: 0%
[2]; [15]
  % activity found: 0%
[2]; [16]
  % activity found: 0%
[3]; [15]
  % activity found: 0%
[3]; [16]
  % activity found: 20%
Avena fatua (AVEFA); [14]
  % activity found: 0%
Avena fatua (AVEFA); [17]
  % activity found: 0%
[4]; component B 300 g of ai/ha
  % activity found: 0%
[5]; [15]
  % activity found: 0%
[5]; [16]
  % activity found: 0%
[9]; [16]
  % activity found: 0%
[6]; [14]
  % activity found: 20%
[6]; [15]
  % activity found: 0%
[6]; [16]
  % activity found: 0%
Oryza sativa (ORYSA); [14]
  % activity found: 0%
[7]; [14]
  % activity found: 0%
[7]; [17]
  % activity found: 0%
[7]; [15]
  % activity found: 0%
[7]; [16]
  % activity found: 30%
Setaria viridis (SETVI); [14]
  % activity found: 0%
Setaria viridis (SETVI); [17]
  % activity found: 0%
Setaria viridis (SETVI); [15]
  % activity found: 0%
Setaria viridis (SETVI); [16]
  % activity found: 0%
[8]; component B 900 g of ai/ha
  % activity found: 5%
Veronica persica (VERPE); [14]
  % activity found: 0%
Veronica persica (VERPE); [17]
  % activity found: 0%
Veronica persica (VERPE); [15]
  % activity found: 0%
Veronica persica (VERPE); [16]
  % activity found: 0%
Viola tricolor (VIOTR); [16]
  % activity found: 10%
Zea mays (ZEAMX); [14]
  % activity found: 0%
Zea mays (ZEAMX); [17]
  % activity found: 0%
Zea mays (ZEAMX); [15]
  % activity found: 5%
Zea mays (ZEAMX); [16]
  % activity found: 0%

## Cc1ccc(NC(=O)NC(C)(C)c2ccccc2)cc1 [B2-4, N-(4-methylphenyl)-N′-(1-methyl-1-phenylethyl)urea]
[1]; [18]
  % activity found: 0%
[1]; [19]
  % activity found: 0%
[1]; [20]
  % activity found: 0%
[1]; [21]
  % activity found: 0%
[2]; [18]
  % activity found: 0%
[2]; [20]
  % activity found: 0%
[2]; [21]
  % activity found: 0%
[3]; [19]
  % activity found: 0%
[3]; [20]
  % activity found: 0%
[3]; [21]
  % activity found: 0%
Avena fatua (AVEFA); [20]
  % activity found: 0%
Avena fatua (AVEFA); [21]
  % activity found: 0%
[10]; component B 400 g of ai/ha
  % activity found: 0%
[10]; component B 1200 g of ai/ha
  % activity found: 0%
[5]; [18]
  % activity found: 0%
[5]; [19]
  % activity found: 0%
[5]; [20]
  % activity found: 0%
[5]; [21]
  % activity found: 0%
[9]; [18]
  % activity found: 0%
[9]; [19]
  % activity found: 0%
[9]; [20]
  % activity found: 0%
[9]; [21]
  % activity found: 0%
[6]; [18]
  % activity found: 0%
[6]; [19]
  % activity found: 0%
[6]; [20]
  % activity found: 0%
[6]; [21]
  % activity found: 20%
Oryza sativa (ORYSA); [21]
  % activity found: 10%
[7]; [18]
  % activity found: 0%
[7]; [19]
  % activity found: 0%
[7]; [20]
  % activity found: 0%
[7]; [21]
  % activity found: 0%
Setaria viridis (SETVI); [21]
  % activity found: 40%
[8]; component B 400 g of ai/ha
  % activity found: 0%
[8]; component B 1200 g of ai/ha
  % activity found: 0%
Veronica persica (VERPE); [20]
  % activity found: 0%
Veronica persica (VERPE); [21]
  % activity found: 0%
Viola tricolor (VIOTR); [18]
  % activity found: 0%
Viola tricolor (VIOTR); [19]
  % activity found: 0%
Viola tricolor (VIOTR); [20]
  % activity found: 0%
Viola tricolor (VIOTR); [21]
  % activity found: 0%
Zea mays (ZEAMX); [18]
  % activity found: 0%
Zea mays (ZEAMX); [19]
  % activity found: 10%
